For one substance, anticoagulant activity results are on record in US20250360160A1, “NEW MEDICAL USE OF TAFOXIPARIN” (DILAFOR AB, priority 2022, published 2025).

This experiment in a line: anticoagulant activity. Particulars: definition of DF01.

Regarding tafoxiparin, the anticoagulant activity result is on record as “essentially no anticoagulant activity”.
